The values that follow come from patent US11286248B2, “Pyrazine-2(1H)-ketone compound acting as FGFR inhibitor” (ZHANGZHOU PIEN TZE HUANG PHARMACEUTICAL CO., LTD., priority 2018, dated 2022).

Holding throughout (format): biochemical
One test has as its target T1, FGFR2 (Homo sapiens, UniProt P21802).
T1 construct: purchased Invitrogen PV3368
In words: 33P isotope-labeled kinase activity test (Reaction Biology Corp), wild-type FGFR2. The conditions noted are these: for Selectivity FGFR1/2: ratio of IC50 FGFR1 to IC50 FGFR2; for IC50: wild-type kinase, 33P-ATP 5 μM, substrate pEY + Mn, 120 minutes at room temperature.

The next test deals with T2, human FGFR1 (Homo sapiens, UniProt P11362).
T2 construct: purchased Invitrogen PV3146
T2 sequence (P11362 22-822): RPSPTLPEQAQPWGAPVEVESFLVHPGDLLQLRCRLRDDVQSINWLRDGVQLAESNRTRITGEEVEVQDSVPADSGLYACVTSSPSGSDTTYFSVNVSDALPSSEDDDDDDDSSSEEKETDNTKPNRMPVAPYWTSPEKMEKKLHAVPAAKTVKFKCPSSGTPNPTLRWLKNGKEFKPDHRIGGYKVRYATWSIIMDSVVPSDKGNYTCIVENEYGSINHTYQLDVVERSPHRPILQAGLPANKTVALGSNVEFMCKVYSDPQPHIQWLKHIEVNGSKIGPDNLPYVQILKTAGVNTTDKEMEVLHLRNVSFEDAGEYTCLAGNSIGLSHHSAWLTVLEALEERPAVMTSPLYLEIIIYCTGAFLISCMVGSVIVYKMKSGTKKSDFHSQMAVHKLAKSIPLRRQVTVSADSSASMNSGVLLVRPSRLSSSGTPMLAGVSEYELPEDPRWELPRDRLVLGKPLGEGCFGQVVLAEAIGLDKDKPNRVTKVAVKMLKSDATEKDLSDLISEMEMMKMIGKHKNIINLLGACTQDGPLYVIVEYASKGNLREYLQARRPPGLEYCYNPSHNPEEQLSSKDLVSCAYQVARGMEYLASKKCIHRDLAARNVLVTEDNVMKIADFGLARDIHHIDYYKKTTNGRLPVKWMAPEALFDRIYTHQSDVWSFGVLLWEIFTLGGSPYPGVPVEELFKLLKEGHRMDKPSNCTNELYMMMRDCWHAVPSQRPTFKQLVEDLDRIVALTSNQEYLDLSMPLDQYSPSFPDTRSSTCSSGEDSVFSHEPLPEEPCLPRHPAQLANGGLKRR
In words: 33P isotope-labeled kinase activity test (Reaction Biology Corp), wild-type FGFR1. The conditions noted are these: 33P-ATP 5 μM, substrate pEY + Mn, 120 minutes at room temperature. The method, then:
(§1) The IC50 value is determined using ^33P isotope-labeled kinase activity test (Reaction Biology Corp) to evaluate the inhibitory ability of the compounds to be tested on human FGFR1 and FGFR4.
(§2) Buffer conditions: 20 mM 4-(2-hydroxyethyl)-1-piperazineethanesulfonic acid (Hepes) (pH 7.5), 10 mM MgCl2, 1 mM ethylene glycol-bis-(2-aminoethyl ether)tetraacetic acid (EGTA), 0.02% polyoxyethylene lauryl ether (Brij35), 0.02 mg/ml bovine serum albumin (BSA), 0.1 mM sodium vanadate (Na3VO4), 2 mM dithiothreitol (DTT), and 1% DMSO.
Test steps: At room temperature, the compounds to be tested are dissolved in DMSO to prepare a 10 mM solution for use. The substrate is dissolved in the newly prepared buffer, and the kinase to be tested is added and mixed well. The DMSO solution in which the compounds to be tested are dissolved is added to the above-mentioned homogeneous reaction solution using acoustic technology (Echo 550). […] After incubating for 15 minutes, ^33P-ATP (activity: 0.01 μCi/μl, with corresponding concentration being listed in table 1) is added to start the reaction. The supplier article number, batch number, and the concentration information in the reaction solution of FGFR1, FGFR4 and substrates thereof are listed in table 1. […] The kinase activity data is expressed by comparing the kinase activity of the groups containing the compounds to be tested with that of the blank group (containing only DMSO). The IC50 value is obtained by curve fitting using Prism4 software (GraphPad), and the experimental results are shown in table 2.

The next test has as its target T3, FGFR3 (Homo sapiens, UniProt P22607).
T3 construct: purchased Invitrogen PV3145
In words: 33P isotope-labeled kinase activity test (Reaction Biology Corp), wild-type FGFR3. The conditions noted are these: for Selectivity FGFR1/3: ratio of IC50 FGFR1 to IC50 FGFR3; for IC50: wild-type kinase, 33P-ATP 30 μM, substrate pEY + Mn, 120 minutes at room temperature.

A further test deals with T4, human FGFR4 (Homo sapiens, UniProt P22455).
T4 construct: purchased Invitrogen P3054
T4 sequence (P22455 22-802): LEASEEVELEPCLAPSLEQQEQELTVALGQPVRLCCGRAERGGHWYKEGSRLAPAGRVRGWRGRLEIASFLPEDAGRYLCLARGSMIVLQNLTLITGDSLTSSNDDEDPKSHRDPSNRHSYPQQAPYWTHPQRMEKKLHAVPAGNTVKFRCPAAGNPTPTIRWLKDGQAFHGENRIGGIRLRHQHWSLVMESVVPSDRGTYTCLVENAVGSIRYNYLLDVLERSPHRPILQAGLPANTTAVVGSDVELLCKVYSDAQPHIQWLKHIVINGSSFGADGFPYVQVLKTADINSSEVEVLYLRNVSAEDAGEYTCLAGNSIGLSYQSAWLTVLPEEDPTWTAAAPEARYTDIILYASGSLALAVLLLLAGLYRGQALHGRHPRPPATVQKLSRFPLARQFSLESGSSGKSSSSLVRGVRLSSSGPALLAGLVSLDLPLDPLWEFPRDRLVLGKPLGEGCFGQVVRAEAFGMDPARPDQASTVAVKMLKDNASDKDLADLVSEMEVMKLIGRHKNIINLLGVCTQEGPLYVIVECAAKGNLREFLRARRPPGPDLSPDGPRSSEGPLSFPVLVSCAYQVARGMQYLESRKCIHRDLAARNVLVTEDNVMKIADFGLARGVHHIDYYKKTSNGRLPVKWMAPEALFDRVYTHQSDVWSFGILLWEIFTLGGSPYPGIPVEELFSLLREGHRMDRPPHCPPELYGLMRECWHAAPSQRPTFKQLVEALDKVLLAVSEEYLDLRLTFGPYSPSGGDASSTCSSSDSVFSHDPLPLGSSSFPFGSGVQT
In words: 33P isotope-labeled kinase activity test (Reaction Biology Corp), wild-type FGFR4. The conditions noted are these: 33P-ATP 2.5 μM, substrate pEY + Mn, 120 minutes at room temperature. The procedure: as §1, §2
Test steps: At room temperature, the compounds to be tested are dissolved in DMSO to prepare a 10 mM solution for use. The substrate is dissolved in the newly prepared buffer, and the kinase to be tested is added and mixed well. The DMSO solution in which the compounds to be tested are dissolved is added to the above-mentioned homogeneous reaction solution using acoustic technology (Echo 550). […] After incubating for 15 minutes, ^33P-ATP (activity: 0.01 μCi/μl, with corresponding concentration being listed in table 1) is added to start the reaction. The supplier article number, batch number, and the concentration information in the reaction solution of FGFR1, FGFR4 and substrates thereof are listed in table 1. After the reaction is carried out at room temperature for 120 minutes, the reaction solution is spotted on P81 ion exchange filter paper (Whatman #3698-915). After the filter paper is repeatedly washed with 0.75% phosphoric acid solution, the radioactivity of the phosphorylated substrate remaining on the filter paper is measured. The kinase activity data is expressed by comparing the kinase activity of the groups containing the compounds to be tested with that of the blank group (containing only DMSO). The IC50 value is obtained by curve fitting using Prism4 software (GraphPad), and the experimental results are shown in table 2.

SMILES strings stand for the structures. Structures can show the parent of a compound that is named as a salt.

T3 sequence (P22607 23-806): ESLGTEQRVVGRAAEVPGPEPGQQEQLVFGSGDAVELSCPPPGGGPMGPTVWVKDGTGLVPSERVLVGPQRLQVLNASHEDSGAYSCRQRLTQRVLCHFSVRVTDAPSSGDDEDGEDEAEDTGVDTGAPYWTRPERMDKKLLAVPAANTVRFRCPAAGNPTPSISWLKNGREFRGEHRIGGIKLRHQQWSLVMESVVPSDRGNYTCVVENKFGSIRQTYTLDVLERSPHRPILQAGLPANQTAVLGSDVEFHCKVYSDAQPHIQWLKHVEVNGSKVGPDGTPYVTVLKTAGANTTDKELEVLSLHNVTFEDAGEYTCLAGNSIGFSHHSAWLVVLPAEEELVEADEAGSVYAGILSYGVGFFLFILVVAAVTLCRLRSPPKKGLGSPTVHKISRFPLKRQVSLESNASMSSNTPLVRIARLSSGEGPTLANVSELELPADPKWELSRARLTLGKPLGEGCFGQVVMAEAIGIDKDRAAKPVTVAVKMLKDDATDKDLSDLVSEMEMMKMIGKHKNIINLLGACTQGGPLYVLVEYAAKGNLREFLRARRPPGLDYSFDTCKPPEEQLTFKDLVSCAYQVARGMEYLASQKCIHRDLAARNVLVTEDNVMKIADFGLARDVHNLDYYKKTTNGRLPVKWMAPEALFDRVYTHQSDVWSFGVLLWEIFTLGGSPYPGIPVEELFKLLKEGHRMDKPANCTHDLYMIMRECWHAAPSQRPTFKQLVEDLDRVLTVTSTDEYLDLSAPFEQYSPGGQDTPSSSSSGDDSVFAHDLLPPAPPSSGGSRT
T1 sequence (P21802 22-821): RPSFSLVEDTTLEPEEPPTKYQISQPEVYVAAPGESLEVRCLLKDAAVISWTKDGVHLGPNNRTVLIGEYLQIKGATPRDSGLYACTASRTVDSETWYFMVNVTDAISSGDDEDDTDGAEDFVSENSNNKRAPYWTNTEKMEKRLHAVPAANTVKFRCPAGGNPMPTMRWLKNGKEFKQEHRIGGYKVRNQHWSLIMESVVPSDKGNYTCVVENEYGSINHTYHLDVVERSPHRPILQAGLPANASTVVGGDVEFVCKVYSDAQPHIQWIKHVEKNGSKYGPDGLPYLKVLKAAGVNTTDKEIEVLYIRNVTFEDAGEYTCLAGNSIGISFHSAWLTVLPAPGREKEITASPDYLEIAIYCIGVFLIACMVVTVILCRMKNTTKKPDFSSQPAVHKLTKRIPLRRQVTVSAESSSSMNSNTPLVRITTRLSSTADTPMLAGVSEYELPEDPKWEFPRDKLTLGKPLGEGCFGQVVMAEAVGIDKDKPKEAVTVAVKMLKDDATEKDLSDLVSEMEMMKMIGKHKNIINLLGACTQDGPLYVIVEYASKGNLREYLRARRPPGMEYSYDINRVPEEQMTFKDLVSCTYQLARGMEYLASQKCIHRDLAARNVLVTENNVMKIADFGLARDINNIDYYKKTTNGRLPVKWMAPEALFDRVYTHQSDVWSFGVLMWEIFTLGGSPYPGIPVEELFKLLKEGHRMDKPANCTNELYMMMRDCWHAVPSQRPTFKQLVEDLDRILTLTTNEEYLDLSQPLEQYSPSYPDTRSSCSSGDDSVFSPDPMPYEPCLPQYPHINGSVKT

In the case of `COc1cc(OC)cc(-c2nc(-c3nc(-c4cn(C5CCNCC5)nc4C)cnc3N)cn(C)c2=O)c1` [compound 0028], on FGFR2, the “Selectivity FGFR1/2” value was found to be 7.05. For the same compound, the IC50 was determined as 7.66 nM at FGFR2, 54 nM on human FGFR1 and 10.5 nM on FGFR3. Further, at FGFR3, the “Selectivity FGFR1/3” value came out at 5.12.
Taken in the same sequence, the figures for `COc1cc(OC)cc(-c2nc(-c3nc(-c4cncc(C)c4)cnc3N)cn(C)c2=O)c1` [compound 0056] were 10.62, 11.9 nM, 126 nM, 10.8 nM and 11.76.
Taken in the same sequence, the figures for `COc1cc(OC)c(Cl)c(-c2nc(-c3nc(-c4ccc(C5CCN(C)CC5)nc4)cnc3N)cn(C)c2=O)c1` [Trifluoroacetate salt of 0060] were 5.78, 0.533 nM, 3.08 nM, 0.944 nM and 3.26.
The corresponding values for `COc1cc(OC)cc(-c2nc(-c3nc(-c4cccnc4)cnc3N)cn(C)c2=O)c1` [Trifluoroacetate salt of 0018] are 48.27, 15.1 nM, 727 nM, 8.11 nM and 89.67.
For the compound `COc1cc(OC)cc(-c2nc(-c3nc(-c4cnn(CC5(C#N)CC5)c4C)cnc3N)cn(C)c2=O)c1` [compound 0051], on FGFR2, the “Selectivity FGFR1/2” value is 4.48. The values for the IC50 on FGFR2, on human FGFR1 and on FGFR3 were 6.54 nM, 29.3 nM and 4.11 nM, respectively. Moreover, the “Selectivity FGFR1/3” value at FGFR3 came out at 7.12.
As to `COc1cc(OC)cc(-c2nc(-c3nc(-c4ccc(C5(C#N)CCC5)nc4)cnc3N)cn(C)c2=O)c1` [compound 0059], the results for the IC50 at FGFR2, on human FGFR1 and at FGFR3 were 3060 nM, over 10000 nM and 49.4 nM, respectively.
For `COc1cc(OC)cc(-c2nc(-c3nc(-c4ccc(C5CCN(C)CC5)nc4)cnc3N)cn(C)c2=O)c1` [Hydrochloride salt of 0036], the “Selectivity FGFR1/2” value at FGFR2 was 5.31. The IC50 is 2.48 nM at FGFR2, over 10000 nM on human FGFR4, 13.2 nM on human FGFR1 and 1.81 nM at FGFR3. The “Selectivity FGFR1/3” value at FGFR3 stood at 7.28.
Take `COc1cc(OC)cc(-c2nc(-c3nc(-c4cn(C5CCN(C)CC5)nc4C)cnc3N)cn(C)c2=O)c1` [Trifluoroacetate salt of 0016]: at FGFR2, the “Selectivity FGFR1/2” value is 6.94. Further, the IC50 stood at 4.21 nM at FGFR2, 8640 nM at human FGFR4, 29.2 nM on human FGFR1 and 4.93 nM at FGFR3. The “Selectivity FGFR1/3” value on FGFR3 was 5.92.
Regarding `COc1cc(OC)c(F)c(-c2nc(-c3nc(-c4cn(C)nc4C)cnc3N)cn(C)c2=O)c1` [Trifluoroacetate salt of 0029], on FGFR2, the “Selectivity FGFR1/2” value was 4.14 and the IC50 came to 0.56 nM. Besides, the IC50 at human FGFR1 amounted to 2.33 nM. Further, at FGFR3, the “Selectivity FGFR1/3” value came to 1.52 and the IC50 came to 1.54 nM.
The corresponding values for `COc1cc(OC)cc(-c2nc(-c3nc(-c4cnn(CC(O)CC(F)(F)F)c4C)cnc3N)cn(C)c2=O)c1` (single isomer, unassigned) [compound 0065] are 7.56, 53.9 nM, 407 nM, 9.01 and 45.2 nM.
Taken in the same sequence, the figures for `COCCN1CCC(n2cc(-c3cnc(N)c(-c4cn(C)c(=O)c(-c5cc(OC)cc(OC)c5)n4)n3)c(C)n2)CC1` [compound 0035] were 5.02, 5.83 nM, 29.3 nM, 5.81 and 5.04 nM.
The corresponding values for `COc1cc(OC)cc(-c2nc(-c3nc(-c4cnn(CC(O)CC(F)(F)F)c4C)cnc3N)cn(C)c2=O)c1` (single isomer, unassigned) [compound 0064] are 7.97, 22.7 nM, 181 nM, 11.18 and 16.2 nM.
Take `COc1cc(OC)cc(-c2nc(-c3nc(-c4cn(CCO)nc4C)cnc3N)cn(C)c2=O)c1` [compound 0048]: the “Selectivity FGFR1/2” value at FGFR2 is listed as 4.79. Besides, the values for the IC50 on FGFR2, on human FGFR1 and on FGFR3 were 56.1 nM, 269 nM and 57.8 nM, respectively. On FGFR3, the “Selectivity FGFR1/3” value turned out to be 4.65.
For the compound `COc1cc(OC)cc(-c2nc(-c3nc(-c4cnn(CCO)c4C)cnc3N)cn(C)c2=O)c1` [compound 0049], on FGFR2, the “Selectivity FGFR1/2” value was found to be 3.07 and the IC50 is 65.5 nM. In addition, the IC50 at human FGFR1 turned out to be 201 nM. Moreover, at FGFR3, the “Selectivity FGFR1/3” value turned out to be 5.85 and the IC50 was found to be 34.3 nM.
The corresponding values for `COc1cc(OC)cc(-c2nc(-c3nc(-c4cnn(C)c4)cnc3N)cn(C)c2=O)c1` [compound 0017] are 8.95, 8.79 nM, 78.7 nM, 12.48 and 6.31 nM.
The corresponding values for `COc1cc(OC)cc(-c2nc(-c3nc(-c4cnn(C5CCN(C)CC5)c4C)cnc3N)cn(C)c2=O)c1` [Trifluoroacetate salt of 0031] are 4.15, 44 nM, 183 nM, 6.57 and 27.8 nM.
Take `COc1cc(OC)cc(-c2nc(-c3nc(-c4cnc5c(c4)CC(=O)N5C)cnc3N)cn(C)c2=O)c1` [Hydrochloride salt of 0033]: on FGFR2, the “Selectivity FGFR1/2” value was 7.27. The IC50 on FGFR2 worked out at 314 nM; at human FGFR1, 2280 nM; on FGFR3, 119 nM. Besides, the “Selectivity FGFR1/3” value on FGFR3 is 19.15.
As to `COc1cc(OC)cc(-c2nc(-c3nc(-c4cn(C)nc4C)cnc3N)cn(C)c2=O)c1` [Hydrochloride salt of 0023], at FGFR2, the “Selectivity FGFR1/2” value worked out at 5.11 and the IC50 worked out at 32.1 nM. Also, the IC50 at human FGFR1 worked out at 164 nM. Moreover, at FGFR3, the “Selectivity FGFR1/3” value is listed as 5.52 and the IC50 turned out to be 29.8 nM.
`COc1cc(OC)cc(-c2nc(-c3nc(-c4cn(CC(O)CC(F)(F)F)nc4C)cnc3N)cn(C)c2=O)c1` (single isomer, unassigned) [compound 0063]: at FGFR2, the “Selectivity FGFR1/2” value was 4.39 and the IC50 came out at 16.1 nM. For the same compound, the IC50 at human FGFR1 worked out at 70.8 nM. For the same compound, at FGFR3, the “Selectivity FGFR1/3” value stood at 5.78 and the IC50 amounted to 12.3 nM.
The corresponding values for `COc1cc(OC)cc(-c2nc(-c3nc(-c4cn(CC(O)CC(F)(F)F)nc4C)cnc3N)cn(C)c2=O)c1` (single isomer, unassigned) [compound 0062] are 5.47, 11.2 nM, 61.6 nM, 8.40 and 7.33 nM.
With `COc1cc(OC)cc(-c2nc(-c3nc(-c4cn(CC5(C#N)CC5)nc4C)cnc3N)cn(C)c2=O)c1` [compound 0043], the “Selectivity FGFR1/2” value on FGFR2 is given as 4.17. Moreover, the IC50 turned out to be 12.7 nM at FGFR2, 53 nM at human FGFR1 and 7.99 nM on FGFR3. Besides, at FGFR3, the “Selectivity FGFR1/3” value amounted to 6.63.
Taken in the same sequence, the figures for `CCNC(=O)c1ccc(-c2cnc(N)c(-c3cn(C)c(=O)c(-c4cc(OC)cc(OC)c4)n3)n2)cn1` [compound 0038] were over 68.4, 146 nM, over 10000 nM, 10.2 nM and over 978.5.

As usually defined, the IC50 is the concentration that gives 50% inhibition.
